Results taken from patent publication US10221163B2 (priority 2015, dated 2019).
Where two headings read alike, the source gives them in different places.

Tests used:
[1] = molecular target: IMP-1 (Serratia marcescens, UniProt P52699); assay: biochemical; format: biochemical; conditions: fluorescence assay, CCF2-FA substrate, 2 pM enzyme, 2 hours at 25° C.; read-out: IMP-1 IC50
Outline: (§1)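 Class B activity is measured in the presence of compound by fluorescence with CCF2-FA after a 2-hour incubation at 25° C. IC50 is taken from a 4-parameter fit of semi-logarithmic dose-response data.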

[2] = molecular target: NDM-1 (Klebsiella pneumoniae, UniProt C7C422); assay: biochemical; format: biochemical; conditions: fluorescence assay, CCF2-FA substrate, 1 pM enzyme, 2 hours at 25° C.; read-out: NDM-1 IC50
NDM-1, sequence (C7C422 whole entry, looked up, species assumed): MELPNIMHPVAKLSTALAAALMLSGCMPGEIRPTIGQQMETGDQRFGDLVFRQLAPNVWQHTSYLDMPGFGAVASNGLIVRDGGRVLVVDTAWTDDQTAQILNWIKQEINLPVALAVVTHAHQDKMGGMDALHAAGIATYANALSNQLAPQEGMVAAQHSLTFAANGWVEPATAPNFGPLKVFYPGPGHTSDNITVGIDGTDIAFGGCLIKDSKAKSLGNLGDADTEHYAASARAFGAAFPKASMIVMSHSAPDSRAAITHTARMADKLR
Outline: as §1

[3] = test system: Escherichia coli expressing NDM-1 (CLB30005, CLB30016); format: cell-based; conditions: with imipenem 1 μg/ml; 95% inhibition of bacterial growth
Outline: (§2)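 Clinical strains grown overnight on blood agar at 35°C, colonies suspended in saline, diluted 1:100 into 1.1×CAMHB. Test compound titrated with imipenem at 1 μg/ml; incubated 22–24 h at 35°C, growth read by absorbance.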

[4] = test system: Serratia marcescens expressing IMP-1 (CL5741); format: cell-based; conditions: with imipenem 1 μg/ml; 95% inhibition of bacterial growth
Outline: as §2

[5] = test system: Klebsiella pneumoniae expressing VIM-1 (IHMA599644); format: cell-based; conditions: with imipenem 1 μg/ml; 95% inhibition of bacterial growth
Outline: as §2

[6] = test system: Pseudomonas aeruginosa efflux+ (MB9798), IMP-1; format: cell-based; conditions: concentration restoring susceptibility to imipenem at 2 μg/mL in the presence of a class A, C, D serine β-lactamase inhibitor closely related to relebactam
Outline: (§3)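 Microbroth MIC tests in PAO1-background strains with fixed imipenem and/or ceftazidime, usually at the CLSI breakpoint, plus fixed class A/C β-lactamase inhibitor against AmpC. MBL inhibitor titrated; concentration restoring susceptibility recorded and compared as fold difference between efflux+ MB9798 and efflux− MB9799.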

[7] = test system: Pseudomonas aeruginosa MB9798 vs MB9799; conditions: ratio MITC95 PA_9798/MITC95 PA_9799
Outline: as §3

[8] = molecular target: VIM-1 (Pseudomonas aeruginosa (strain ATCC 15692 / DSM 22644 / CIP 104116 / JCM 14847 / LMG 12228 / 1C / PRS 101 / PAO1), UniProt A0A0F7KYQ8); assay: biochemical; conditions: CCF2-FA substrate, 30 pM enzyme, 2 hours at 25° C.
Outline: as §1

[9] = test system: Pseudomonas aeruginosa efflux− (MB9799), IMP-1; format: cell-based; conditions: concentration restoring susceptibility to imipenem at 2 μg/mL in the presence of a class A, C, D serine β-lactamase inhibitor closely related to relebactam
Outline: as §3

[10] = fluorescence assay, read-out: VIM-1 IC50

IMP-1, sequence (P52699 whole entry, looked up, species assumed): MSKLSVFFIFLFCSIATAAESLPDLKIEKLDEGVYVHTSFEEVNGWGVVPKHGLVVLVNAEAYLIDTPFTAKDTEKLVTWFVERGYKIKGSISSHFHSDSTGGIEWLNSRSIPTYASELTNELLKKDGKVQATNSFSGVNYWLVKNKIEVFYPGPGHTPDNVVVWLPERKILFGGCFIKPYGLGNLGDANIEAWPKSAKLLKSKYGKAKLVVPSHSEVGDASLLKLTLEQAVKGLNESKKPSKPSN

SMILES	IC50 [1] [pM]	IC50 [2] [pM]	Escherichia coli expressing NDM-1 (CLB30016) MITC95 [3] [µM]	Serratia marcescens expressing IMP-1 (CL5741) MITC95 [4] [µM]	Klebsiella pneumoniae expressing VIM-1 (IHMA599644) MITC95 [5] [µM]	P. aeruginosa expressing IMP-1, efflux + (MB9798) MITC95 [6] [µM]	Efflux ratio [7]	IC50 [8, 10] [pM]	P. aeruginosa expressing IMP-1, efflux − (MB9799) MITC95 [9] [µM]	IC50 ([8]; VIM-1 IC50, fluorescence assay) [pM]
NS(=O)(=O)c1c(S(=O)(=O)N[C@H]2C[C@H](N)C2)ccc(-c2cccc3[nH]cnc23)c1-c1nn[nH]n1 [Example 200, N^1-((1r,3r)-3-aminocyclobutyl)-4-(1H-benzo[d]imidazol-4-yl)-3-(2H-tetrazol-5-yl)benzene-1,2-disulfonamide]	276	52.8	1.563	1.563	3.125	0.7813	1.00	114	0.7813	
NC[C@@H](CO)NS(=O)(=O)c1ccc(-c2cccc3sc(N)nc23)c(-c2nnn[nH]2)c1S(N)(=O)=O [Example 201, (S)—N^1-(1-amino-3-hydroxypropan-2-yl)-4-(2-aminobenzo[d]thiazol-4-yl)-3-(1H-tetrazol-5-yl)benzene-1,2-disulfonamide]	109	19.9	1.563	1.563	3.125	0.7813	0.50		1.563	125
NC[C@H](CO)NS(=O)(=O)c1ccc(-c2cccc3sc(N)nc23)c(-c2nnn[nH]2)c1S(N)(=O)=O [Example 202, (R)—N^1-(1-amino-3-hydroxypropan-2-yl)-4-(2-aminobenzo[d]thiazol-4-yl)-3-(1H-tetrazol-5-yl)benzene-1,2-disulfonamide]	713	124	3.125	1.563	3.125	1.563	1.00		1.563	328
NCCOCCNS(=O)(=O)c1ccc(-c2cccc3sc(N)nc23)c(-c2nnn[nH]2)c1S(N)(=O)=O [Example 203, 4-(2-aminobenzo[d]thiazol-4-yl)-N^1-(2-(2-aminoethoxy)ethyl)-3-(1H-tetrazol-5-yl)benzene-1,2-disulfonamide]	199	50	3.125	1.563	3.125	0.7813	0.50	185	1.563	
NCCNC(=O)c1cccc(-c2ccc(S(=O)(=O)NCCN)c(S(N)(=O)=O)c2-c2nn[nH]n2)c1N [Example 204, 2-amino-N-(2-aminoethyl)-4′-(N-(2-aminoethyl)sulfamoyl)-5′-sulfamoyl-6′-(2H-tetrazol-5-yl)biphenyl-3-carboxamide]	2560	520	1.563	1.563	1.563	0.7813	1.00	226	0.7813	
Nc1nc2c(-c3ccc(S(=O)(=O)N4CC[C@@H](F)[C@H](N)C4)c(S(N)(=O)=O)c3-c3nn[nH]n3)cccc2[nH]1 [Example 205, 3-(2-amino-1H-benzo[d]imidazol-4-yl)-6-(((3R,4R)-3-amino-4-fluoropiperidin-1-yl)sulfonyl)-2-(2H-tetrazol-5-yl)benzenesulfonamide]	5890	1200	1.563	3.125	3.125	12.5	8.00	3630	1.563	
Nc1nc2c(-c3ccc(S(=O)(=O)NCC4COCCN4)c(S(N)(=O)=O)c3-c3nn[nH]n3)cccc2[nH]1 (stereo not drawn) [Example 206, 4-(2-amino-1H-benzo[d]imidazol-4-yl)-N1-(morpholin-3-ylmethyl)-3-(2H-tetrazol-5-yl)benzene-1,2-disulfonamide]	498	72.9	0.3906	1.563	1.563	3.125	2.00		1.563	211
Nc1nc2c(-c3ccc(S(=O)(=O)NCC4CCN4)c(S(N)(=O)=O)c3-c3nn[nH]n3)cccc2[nH]1 (stereo not drawn) [Example 207, 4-(2-amino-1H-benzo[d]imidazol-4-yl)-N1-(azetidin-2-ylmethyl)-3-(2H-tetrazol-5-yl)benzene-1,2-disulfonamide]	999	274	3.125	1.563	3.125	3.125	2.00		1.563	690
C[C@H](N)CC(=O)NS(=O)(=O)c1ccc(-c2cccc3[nH]c(N)nc23)c(-c2nn[nH]n2)c1S(N)(=O)=O [Example 208, (S)-3-amino-N-((4-(2-amino-1H-benzo[d]imidazol-4-yl)-2-sulfamoyl-3-(2H-tetrazol-5-yl)phenyl)sulfonyl)butanamide]	3120	449	1.563	3.125	6.25	3.125	1.00	1230	3.125	
Nc1ncccc1-c1ccc(S(=O)(=O)N[C@@H]2CCNC2)c(S(N)(=O)=O)c1-c1nn[nH]n1 [Example 209, (R)-4-(2-aminopyridin-3-yl)-N^1-(pyrrolidin-3-yl)-3-(2H-tetrazol-5-yl)benzene-1,2-disulfonamide]	3100	148	0.293	0.7813	1.563	1.563	1.33	177	1.172	
NCC(CN)NS(=O)(=O)c1ccc(-c2cccnc2N)c(-c2nn[nH]n2)c1S(N)(=O)=O [Example 210, 4-(2-aminopyridin-3-yl)-N1-(1,3-diaminopropan-2-yl)-3-(2H-tetrazol-5-yl)benzene-1,2-disulfonamide]	1500	126	0.1953	0.7813	3.125	3.125	2.00	197	1.563	
